Several values for one entry are separate records, joined by “and”; a condition that tells them apart may be missing. Equal entries are not always repeated. Where two headings read alike, the source gives them in different places.
Experiments:
[1] = test system: HCT116 cells; test: PrestoBlue (resazurin) cytotoxicity assay in HCT116 cells; assay type: cell-based, human
Experimental: Human CRC cells HCT116 obtained from ATCC were cultured in Eagle’s minimal essential medium (EMEM), while Dulbecco’s modified Eagle medium (DMEM) was used for the normal fibroblast cell line GM05757 purchased from Coriell Institute. […] Cells were incubated at 37 °C in a humidified environment with 5% CO2.
Cytotoxic activity was measured with the PrestoBlue method, which consists of a Resazurin-based metabolic assay. […] The final concentration of DMSO was less than 1%. Then, the media were removed, and the cells were washed with warm PBS and exposed with PrestoBlue reagent for an incubation time of 20 min. Changes in cell viability were recorded by fluorescence (λex = 570 nm; λem = 610 nm). […] The fluorescence values measured for blank groups were subtracted from those obtained from the treated and untreated cells.

[2] = test system: GM05757 cells; test: PrestoBlue (resazurin) cytotoxicity assay in GM05757 normal fibroblasts
Experimental: Human CRC cells HCT116 obtained from ATCC were cultured in Eagle’s minimal essential medium (EMEM), while Dulbecco’s modified Eagle medium (DMEM) was used for the normal fibroblast cell line GM05757 purchased from Coriell Institute. These culture media were supplemented with 10% FBS, 26.2 mM sodium bicarbonate, 2 mM L-glutamine, and a mix of penicillin (100 UI/mL) and streptomycin (100 μg/mL). Cells were incubated at 37 °C in a humidified environment with 5% CO2.
Cytotoxic activity was measured with the PrestoBlue method, which consists of a Resazurin-based metabolic assay. Briefly, HCT116 cells (2 × 10^4 cells per well) and GM05757 cells (5 × 10^3 cells per well) were seeded in a 96-well plate and incubated for 24 h. Then, the cells were treated with the Pt drugs at concentrations ranging from 0 to 500 µM for a subsequent 24, 48, and 72 h. […] The final concentration of DMSO was less than 1%. Then, the media were removed, and the cells were washed with warm PBS and exposed with PrestoBlue reagent for an incubation time of 20 min. Changes in cell viability were recorded by fluorescence (λex = 570 nm; λem = 610 nm). […] The fluorescence values measured for blank groups were subtracted from those obtained from the treated and untreated cells.

[3] = test system: HCT116 cells; details: cited from earlier work
[4] = Plasma stability by radio-TLC; assay type: in vitro ADME, mouse; details: room temperature; radio-iTLC; free 64Cu or fragments
Experimental: Plasma stability of the compound was assessed by incubating [^64Cu]Cu-NOTA-C3-TP in mouse plasma for 72 h at room temperature. Radio-TLC on C18 plates conducted on 0.1 M sodium citrate buffer at pH 5.5, as a developing solvent, was used to detect free ^64Cu. [^64Cu]Cu-NOTA-C3-TP and free [^64Cu]Cu(OAc)2 were employed as control standards.

[5] = test system: HCT116 cells; test: Cellular uptake and internalization in HCT116 cells (gamma counting); assay type: cell-based, human
Experimental: (§1) HCT116 cells (2 × 10^5 per well) were seeded in 12-well plates for 48 h in EMEM medium completed with 10% FBS at 37 °C until 80% confluence. Cells were washed twice with PBS, and then [^64Cu]Cu-NOTA-C3-TP (0.1 MBq, 50 µL) in EMEM completed medium was added and incubated from 15 min to 72 h to measure cellular uptake and internalization. At each time point, the radioactive media was removed, and cells were washed thrice with cold PBS. To measure the net cellular uptake or internalized fraction, surface-bound Pt drugs were removed by treating with 50 mM glycine in PBS pH 2.2 for 10 min, which was followed by a second cold PBS wash. Then, cells were harvested through trypsinization and counted with a hemocytometer. The radioactivity was measured in a gamma counter (HIDEX Automatic Gamma Counter 2014). The results were expressed as a percentage of added dose (AD) retained per 10^6 cells (%AD/10^6 cells). Parallel experiments were carried out at 4 °C to assess internalization inhibition and surface-bound fraction. For efflux studies, HCT116 cells were incubated for 1 h with 0.1 MBq of [^64Cu]Cu-NOTA-C3-TP. Then, the cells were washed with PBS and fresh culture medium was added. After 0 to 72 h, the medium was removed, and the cells were washed thrice with PBS. Finally, the cells were harvested, and radioactivity was counted with the gamma counter. The results were expressed as percentage of total activity retained by 10^6 cells relative to baseline at 0 min.

[6] = test system: HCT116 cells; test: Efflux assay in HCT116 cells; assay type: cell-based, human
Experimental: as §1, with “For efflux studies, HCT116 cells were incubated for 1 h with 0.1 MBq of [^64Cu]Cu-NOTA-C3-TP. Then, the cells were washed with PBS and fresh culture medium was added. After 0 to 72 h, the medium was removed, and the cells were washed thrice with PBS.” left out
For efflux studies, we followed the standard protocol of Fournier et al.. […] The activity retained by the cells was measured from 0 to 72 h post administration.

[7] = test system: HCT116 cells; test: Subcellular (nucleus/cytoplasm) localization in HCT116 cells; assay type: cell-based, human; details: for Nucleus accumulation HCT116 versus GM05757 (fold reduction in GM05757) / Cytoplasmic distribution / Nucleus localization: high AMA; for Cytoplasmic distribution / Nucleus localization: HCT116
Experimental: For extraction of HCT116 and GM05757 cell nucleus and cytoplasm, we followed a previously reported procedure [28, 31]. After treatment of HCT116 cells with 1MBq of [^64Cu]Cu-NOTA-C3-TP for 24, 48 and 72 h, CSK buffer (0.5% Triton X-100, 300 mM sucrose, 100 mM NaCl, 1 mM ethylenediaminetetraacetic acid (EDTA), 2 mM MgCl2, and 10 mM HEPES, pH 6.8) were employed for nuclear extraction. After 5 min centrifugation, supernatant was separated, and the retained activity in nuclear plates was counted by a gamma counter (HIDEX Automatic Gamma Counter 2014).

[8] = test system: GM05757 cells; details: high AMA
Experimental: For extraction of HCT116 and GM05757 cell nucleus and cytoplasm, we followed a previously reported procedure. After treatment of HCT116 cells with 1MBq of [^64Cu]Cu-NOTA-C3-TP for 24, 48 and 72 h, CSK buffer (0.5% Triton X-100, 300 mM sucrose, 100 mM NaCl, 1 mM ethylenediaminetetraacetic acid (EDTA), 2 mM MgCl2, and 10 mM HEPES, pH 6.8) were employed for nuclear extraction. After 5 min centrifugation, supernatant was separated, and the retained activity in nuclear plates was counted by a gamma counter (HIDEX Automatic Gamma Counter 2014).

[9] = Pt release at physiological pH by mass spectroscopy; assay type: physicochemical; details: physiological pH 7.2, after 72 h
[10] = 24 h incubation, read-out: EC50 HCT116 24 h
[11] = 48 h incubation, read-out: EC50 HCT116 48 h
[12] = 72 h incubation, read-out: EC50 HCT116 72 h
[13] = read-out: EC50 GM05757 24 h, 24 h incubation
[14] = read-out: EC50 GM05757 48 h, 48 h incubation
[15] = read-out: EC50 GM05757 72 h, 72 h incubation
[16] = HCT116, 24 h, low AMA 0.8 to 4.0 MBq/nmol
[17] = HCT116, 37 °C, 24 h, % of total activity/10^6 cells

N.N.[Cl][Pt][Cl] [Cisplatin, reference compound]
EC50 [1, 10]: 31 ± 2 µM | EC50 [1, 11]: 42 ± 8 µM | EC50 [1, 12]: 23 ± 3 µM | EC50 [2, 13]: 88 ± 4 µM | EC50 [2, 14]: 84 ± 2 µM | EC50 [2, 15]: 77 ± 1 µM | Cellular accumulation [3]: 5 ng Pt/10^6 HCT116 cells

F[P-](F)(F)(F)(F)F.O=C(O)CN1CCN(CCCOc2cc3[n+]4c(c2)-c2cccc[n+]2[Pt-2]4([Cl])[n+]2ccccc2-3)CCN(CC(=O)O)CC1 [NOTA-C3-TP]
EC50 [1, 10]: > 700 µM | EC50 [1, 11]: 63 ± 2 µM | EC50 [1, 12]: 24 ± 1 µM | EC50 [2, 13]: 504 ± 4 µM | EC50 [2, 14]: 202 ± 5 µM | EC50 [2, 15]: 51 ± 3 µM

O=C1[O][Pt]2([NH][C@@H]3CCCC[C@H]3[NH]2)[O]C1=O [Oxaliplatin, reference compound]
EC50 [1, 10]: > 200 µM | EC50 [1, 11]: 64 ± 1 µM | EC50 [1, 12]: 16 ± 4 µM | EC50 [2, 13]: > 200 µM | EC50 [2, 14]: 165 ± 9 µM | EC50 [2, 15]: 65 ± 3 µM

O=C([O-])CN1CCN(CCCOc2cc3[n+]4c(c2)-c2cccc[n+]2[Pt-2]4([Cl])[n+]2ccccc2-3)CCN(CC(=O)[O-])CC1.[64Cu+2] [[^64Cu]Cu-NOTA-C3-TP]
Viability of HCT116 cells ([1]; 5 MBq, low AMA, 24 h incubation): 22% | Viability of HCT116 cells ([1]; 8 MBq, low AMA, 24 h incubation): 17% | EC50 ([1]; 24 h, high AMA ≈120 MBq/nmol, read-out: EC50 HCT116 24 h): 0.017 ± 0.004 µM | EC50 ([1]; 24 h, low AMA 0.8 to 4.0 MBq/nmol, read-out: EC50 HCT116 24 h): 59 ± 3 µM | EC50 ([1]; 48 h, high AMA ≈120 MBq/nmol, read-out: EC50 HCT116 48 h): 0.012 ± 0.006 µM | EC50 ([1]; 48 h, low AMA 0.8 to 4.0 MBq/nmol, read-out: EC50 HCT116 48 h): 9 ± 2 µM | EC50 ([1]; 72 h, high AMA ≈120 MBq/nmol, read-out: EC50 HCT116 72 h): 0.006 ± 0.002 µM | EC50 ([1]; 72 h, low AMA 0.8 to 4.0 MBq/nmol, read-out: EC50 HCT116 72 h): < 5 µM | Fold more activity relative to [NatCu]Cu-NOTA-C3-TP and NOTA-C3-TP ([1]; HCT116, 48 and 72 h, low AMA): 5–66 fold | Improvement of cytotoxicity with respect to [NatCu]Cu-NOTA-C3-TP ([1]; HCT116, 24 h, high AMA ≈120 MBq/nmol): ~17,000 fold | Times more active than NOTA-C3-TP [1, 16]: 12 times | Times more active than [NatCu]Cu-NOTA-C3-TP [1, 16]: 5 times | Times more active than oxaliplatin [1, 16]: 3.4 times | Improvement of cytotoxicity with respect to [NatCu]Cu-NOTA-C3-TP ([1]; HCT116, 72 h, high AMA ≈120 MBq/nmol): > 55,000 fold and 55,000 fold | Selectivity toward cancer cells ([1]; HCT116 vs GM05757, 24 h): 3.9 | Times higher efficiency toward HCT116 relative to GM05757 ([1]; high AMA, 24 to 72 h): 2–4 times | Cytotoxic activity on GM05757 lower than on HCT116 (fold) ([2]; low AMA, 24 h): at least 3.4 fold | EC50 ([2]; read-out: EC50 GM05757 24 h, 24 h, high AMA ≈120 MBq/nmol): > 0.066 µM | EC50 ([2]; read-out: EC50 GM05757 24 h, 24 h, low AMA 0.8 to 4.0 MBq/nmol): > 200 µM | EC50 ([2]; read-out: EC50 GM05757 48 h, 48 h, high AMA ≈120 MBq/nmol): 0.025 ± 0.005 µM | EC50 ([2]; read-out: EC50 GM05757 72 h, 72 h, high AMA ≈120 MBq/nmol): 0.019 ± 0.004 µM | EC50 ([2]; read-out: EC50 GM05757 72 h, 72 h, low AMA 0.8 to 4.0 MBq/nmol): 12 ± 2 µM | Stability in mouse plasma [4]: stable up to 72 h | Internalization in HCT116 fold higher than in GM05757 ([5]; 24 h, 37 °C): 3.1 fold | Internalization in HCT116 fold higher than in GM05757 ([5]; 48 h, 37 °C): 1.8 fold | Internalization in HCT116 fold higher than in GM05757 ([5]; 72 h, 37 °C): 2.1 fold | Uptake at 4 °C (passive accumulation), share of conjugate incubated ([5]; HCT116, 4 °C): less than 1% | Cell-associated fraction higher than internalized fraction ([5]; HCT116, 37 °C): 2 fold | Incubation time of maximum accumulation ([5]; HCT116, 37 °C): 24 h | Internalized fraction ([5]; HCT116, 37 °C, 15 min incubation, % of total activity/10^6 cells): 0.04 ± 0.02% | Cell-associated fraction (maximum) [5, 17]: 40.0 ± 2.8% | Internalized fraction (maximum) [5, 17]: 18.7 ± 2.8% | Cellular accumulation times larger than cisplatin ([5]; HCT116, 24 h): 14.4 times | Cellular accumulation (maximum) ([5]; HCT116, 24 h incubation, low AMA): 72 ng of Pt/10^6 HCT116 cells | Uptake at 4 °C lower than at 37 °C ([5]; HCT116, passive accumulation): ~ 30 fold | Conjugate retained by cells ([6]; 72 h post administration): more than 40% | Conjugate eliminated (efflux) ([6]; first 6 h after 1 h incubation): About 42% | Increase in HCT116 nucleus uptake relative to [64Cu]Cu(OAc)2 ([7]; 24 h): 2.8 fold | Nucleus accumulation HCT116 versus GM05757 (fold reduction in GM05757) ([7]; 24 h): 5.7 fold | Increase in HCT116 nucleus uptake relative to [64Cu]Cu(OAc)2 ([7]; 48 h): 4.9 fold | Nucleus accumulation HCT116 versus GM05757 (fold reduction in GM05757) ([7]; 48 h): 4.4 fold | Increase in HCT116 nucleus uptake relative to [64Cu]Cu(OAc)2 ([7]; 72 h): 3.7 fold | Nucleus accumulation HCT116 versus GM05757 (fold reduction in GM05757) ([7]; 72 h): 4.1 fold | Cytoplasmic distribution ([7]; 24 h): 76 ± 7.3% | Nucleus localization ([7]; 24 h): 8.6 ± 3% and 8.6% | Cytoplasmic distribution ([7]; 48 h): 61 ± 11% | Nucleus localization ([7]; 48 h): 13.4 ± 4% | Cytoplasmic distribution ([7]; 72 h): 61 ± 8.3% | Nucleus localization ([7]; 72 h): 12.3 ± 1% | Cytoplasmic distribution ([8]; 24 h): 46 ± 6% | Nucleus localization ([8]; 24 h): 1.5 ± 0.2% | Cytoplasmic distribution ([8]; 48 h): 53 ± 6.5% | Nucleus localization ([8]; 48 h): 3 ± 0.4% | Cytoplasmic distribution ([8]; 72 h): 58.5 ± 8.3% | Nucleus localization ([8]; 72 h): 3 ± 0.1% | Pt released [9]: not seen
